Literature values in patent US11992527B2, “Extracellular vesicles for vaccine delivery” (LONZA SALES AG, priority 2019, dated 2024).

Assays:
[1] = test system: BALF collagen and protein; macrophage and lymphocyte infiltration induced by bleomycin
[2] = test system: LPA-induced histamine release; details: in mice
[3] = test system: mouse LPA-1/CHO cells; details: in vitro, read-out: IC50, inhibition of LPA-1-induced chemotaxis
[4] = test system: human A2058 melanoma cells; details: in vitro, read-out: IC50, inhibition of LPA-1-induced chemotaxis
[5] = in vivo
[6] = Phase 2 study (Palmer 2018)

IC50 [4] [nM]	oral bioavailability [5]	Compound	ED50, reduction of BALF collagen and protein ([1]; in lungs) [mg/kg]	macrophage and lymphocyte infiltration induced by bleomycin ([1]; in mice)	ED50, block of LPA-induced histamine release [2] [mg/kg]	IC50 [3] [nM]	toxicity that led to early termination of the Phase 2 study [6]
230	orally bioavailable	Cc1noc(-c2ccc(-c3ccc(CC(=O)O)cc3)cc2)c1NC(=O)O[C@H](C)c1ccccc1 [AM095, 1,1′-Biphenyl]-4-acetic acid, 4′-[3-methyl-4-[[[(1R)-1-phenylethoxy]carbonyl]amino]-5-isoxazolyl[ ]-]	10	decrease both macrophage and lymphocyte infiltration	8.3	780	
		Cc1noc(-c2ccc(-c3ccc(C4(C(=O)O)CC4)cc3)cc2)c1NC(=O)O[C@H](C)c1ccccc1 [AM152, Cyclopropanecarboxylic acid, 1-[4′-[3-methyl-4-[[[(1R)-1-phenylethoxy]carbonyl]amino]-5-isoxazolyl][1,1′-biphenyl]-4-yl]-]					gall bladder toxicity and early signs of liver toxicity
